For test [1], the target named is T1, soluble guanylate cyclase (sGC) (Rattus norvegicus, UniProt P20595).
T1 construct: made in house
T1 sequence (P20595 1-619): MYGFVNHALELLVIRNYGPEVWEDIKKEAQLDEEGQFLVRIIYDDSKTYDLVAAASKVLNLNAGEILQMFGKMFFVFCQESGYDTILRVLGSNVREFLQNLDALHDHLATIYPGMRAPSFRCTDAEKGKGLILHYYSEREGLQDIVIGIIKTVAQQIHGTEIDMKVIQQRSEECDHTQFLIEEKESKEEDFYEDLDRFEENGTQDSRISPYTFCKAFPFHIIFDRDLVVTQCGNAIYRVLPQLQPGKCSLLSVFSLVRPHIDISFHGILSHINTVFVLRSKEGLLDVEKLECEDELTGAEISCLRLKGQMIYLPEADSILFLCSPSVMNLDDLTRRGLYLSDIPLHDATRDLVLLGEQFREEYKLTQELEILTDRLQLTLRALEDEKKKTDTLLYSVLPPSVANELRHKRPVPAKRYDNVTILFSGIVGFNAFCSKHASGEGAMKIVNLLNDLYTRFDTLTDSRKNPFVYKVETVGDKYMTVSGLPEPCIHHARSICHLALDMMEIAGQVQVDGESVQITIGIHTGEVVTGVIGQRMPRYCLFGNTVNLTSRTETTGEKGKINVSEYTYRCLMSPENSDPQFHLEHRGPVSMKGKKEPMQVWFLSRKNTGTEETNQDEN
T1 sequence (P19686 1-690 partner): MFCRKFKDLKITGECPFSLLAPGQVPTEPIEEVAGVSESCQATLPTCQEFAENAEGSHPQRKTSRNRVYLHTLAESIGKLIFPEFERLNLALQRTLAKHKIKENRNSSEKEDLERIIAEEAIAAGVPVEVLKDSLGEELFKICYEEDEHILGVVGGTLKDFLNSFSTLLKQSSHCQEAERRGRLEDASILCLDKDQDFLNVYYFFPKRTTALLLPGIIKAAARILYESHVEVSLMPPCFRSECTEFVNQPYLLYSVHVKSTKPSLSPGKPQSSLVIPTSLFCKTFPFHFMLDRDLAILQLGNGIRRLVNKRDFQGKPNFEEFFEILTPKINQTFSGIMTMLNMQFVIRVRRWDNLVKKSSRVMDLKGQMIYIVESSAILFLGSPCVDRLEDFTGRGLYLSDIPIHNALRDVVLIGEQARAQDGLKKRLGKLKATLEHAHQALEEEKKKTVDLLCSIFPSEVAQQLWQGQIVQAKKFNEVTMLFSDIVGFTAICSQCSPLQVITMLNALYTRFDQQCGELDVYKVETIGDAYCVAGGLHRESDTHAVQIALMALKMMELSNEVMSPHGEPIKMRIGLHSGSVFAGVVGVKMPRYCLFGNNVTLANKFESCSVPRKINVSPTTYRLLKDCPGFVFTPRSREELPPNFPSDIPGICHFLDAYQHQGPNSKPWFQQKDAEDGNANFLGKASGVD
The test can be described thus: Stimulation of sGC enzyme activity (PPi detection, luciferase luminescence). The following applies: for EC50: read-out: EC50 (half-maximal effective concentration), activating action at the sGC enzyme in vitro. In kind it is biochemical. The method, then: B-3. Stimulation of sGC Enzyme Activity
Soluble guanylate cyclase (sGC) converts on stimulation GTP into cGMP and pyrophosphate (PPi). PPi is detected with the aid of the assay described below. The signal produced in the assay increases as the reaction progresses and serves as a measure of the sGC enzyme activity under the given stimulation.
To carry out the assay, 29 μl of enzyme solution [0-10 nM soluble guanylate cyclase (prepared according to Hönicka et al., J. Mol. Med. 77, 14-23 (1999)) in 50 mM TEA, 2 mM MgCl2, 0.1% BSA (fraction V), 0.005% Brij®, pH 7.5] are initially introduced into a microplate, and 1 μl of the substance to be tested (as a serially diluted solution in DMSO) is added. The mixture is incubated at room temperature for 10 min. Then 20 μl of detection mix [1.2 nM Firefly Luciferase (Photinus pyralis luciferase, Promega), 29 μM dehydroluciferin (prepared according to Bitler & McElroy, Arch. Biochem. Biophys. 72, 358 (1957)), 122 μM luciferin (Promega), 153 μM ATP (Sigma) and 0.4 mM DTT (Sigma) in 50 mM TEA, 2 mM MgCl2, 0.1% BSA (fraction V), 0.005% Brij®, pH 7.5] are added. The enzyme reaction is started by adding 20 μl of substrate solution [1.25 mM guanosine 5′-triphosphate (Sigma) in 50 mM TEA, 2 mM MgCl2, 0.1% BSA (fraction V), 0.005% Brij®, pH 7.5] and measured continuously in a luminometer. The extent of the stimulation by the substance to be tested can be determined relative to the signal of the unstimulated reaction.
The activation of haem-free guanylate cyclase is examined by addition of 25 μM of 1H-1,2,4-oxadiazolo[4,3-a]quinoxalin-1-one (ODQ) to the enzyme solution and subsequent incubation for 30 minutes and compared to the stimulation of the native enzyme.

The target in test [2] is T2, recombinant guanylate cyclase reporter cell line (sGC, CHO reporter cell) (Rattus norvegicus, UniProt P20595).
T2 construct: expressed in transfected cells; host or cells: CHO reporter cell line
T2 sequence (P20595 1-619): T1 sequence (P20595 1-619)
T2 sequence (P19686 1-690 partner): T1 sequence (P19686 1-690 partner)
Put plainly: Effect on a recombinant guanylate cyclase reporter cell line (CHO reporter cell). It is filed as cell-based. Here is the method:
B-2. Effect on a Recombinant Guanylate Cyclase Reporter Cell Line The cellular activity of the compounds according to the invention is determined using a recombinant guanylate cyclase reporter cell line, as described in F. Wunder et al., Anal. Biochem. 339, 104-112 (2005).

Structures can show the parent of a compound that is named as a salt.

Regarding `O=C(Nc1cc(CC2(C(=O)O)CC2)ccc1F)C(C1CCCC1)N1CCc2ccccc2C1` (racemic) [Example 53, rac-1-(3-{[Cyclopentyl(3,4-dihydroisoquinolin-2(1H)-yl)acetyl]amino}-4-fluorobenzyl)cyclopropanecarboxylic acid trifluoroacetate], in test [1], the “MEC (minimum effective concentration), activating action at the sGC enzyme in vitro” value (“MEC … at the sGC enzyme in vitro” for short) came to 160 nM and the EC50 turned out to be 840 nM. Also, the “MEC (minimum effective concentration), sGC-activating activity in the CHO reporter cell in vitro” value (shortened to “MEC … in the CHO reporter cell in vitro”) in test [2] is reported as 100 nM.

Consider `CCC1CCN(C(C(=O)Nc2cc(CC3(C(=O)O)CC3)ccc2F)C(C)C(F)(F)F)CC1` (single isomer, unassigned) [Example 8, 1-(3-{[2-(4-ethylpiperidin-1-yl)-4,4,4-trifluoro-3-methylbutanoyl]amino}-4-fluorobenzyl)cyclopropanecarboxylic acid], for which, in test [1], the “MEC … at the sGC enzyme in vitro” value was 1.2 nM and the EC50 came out at 21 nM. The “MEC … in the CHO reporter cell in vitro” value in test [2] was determined as 0.3 nM.

Take `CCC1CCN(C(C(=O)Nc2cc(CCC(=O)O)ccc2Cl)C(C)C(F)(F)F)CC1` (single isomer, unassigned) [Example 11, 3-(4-chloro-3-{[2-(4-ethylpiperidin-1-yl)-4,4,4-trifluoro-3-methylbutanoyl]amino}phenyl)propanoic acid]: in test [1], the “MEC … at the sGC enzyme in vitro” value worked out at 17 nM and the EC50 was 390 nM. Moreover, the “MEC … in the CHO reporter cell in vitro” value in test [2] is given as 10 nM.

Consider `CCC1CCN([C@@H](C(=O)Nc2cc(CC3(C(=O)O)CC3)ccc2F)[C@@H](C)C(F)(F)F)CC1` (single isomer, unassigned) [Example 39], for which, in test [1], the “MEC … at the sGC enzyme in vitro” value was found to be 1.1 nM and the EC50 was determined as 7.9 nM. In addition, the “MEC … in the CHO reporter cell in vitro” value in test [2] is 0.3 nM.

For the compound `C[C@H]([C@H](C(=O)Nc1cc(C[C@H](C)C(=O)O)ccc1Cl)N1CCC2(CC1)CC2)C(F)(F)F` (single isomer, unassigned) [Example 46], in test [1], the “MEC … at the sGC enzyme in vitro” value amounted to 17 nM and the EC50 stood at 210 nM. In test [2], the “MEC … in the CHO reporter cell in vitro” value is listed as 10 nM.

On to `C[C@H](CC(=O)O)c1ccc(Cl)c(NC(=O)[C@@H]([C@@H](C)C(F)(F)F)N2CCC3(CC2)CC3)c1` (single isomer, unassigned) [Example 47], for which, in test [1], the “MEC … at the sGC enzyme in vitro” value is recorded as 3.9 nM and the EC50 was determined as 81 nM. Further, in test [2], the “MEC … in the CHO reporter cell in vitro” value was found to be 1 nM.

`C[C@H]([C@H](C(=O)Nc1cc(C[C@H](C)C(=O)O)ccc1F)N1CCC2(CC1)CC2)C(F)(F)F` [Example 28]: the “MEC … in the CHO reporter cell in vitro” value in test [2] was 20 nM.

On to `C[C@H](Cc1ccc(Cl)c(NC(=O)[C@@H]([C@@H](C)C(F)(F)F)N2CCC3(CC2)CC3)c1)C(=O)O` [Example 29], for which, in test [2], the “MEC … in the CHO reporter cell in vitro” value turned out to be 30 nM.

On to `CC1CCN([C@@H](C(=O)Nc2cc(C[C@@H](C)C(=O)O)ccc2F)[C@@H](C)C(F)(F)F)CC1` [Example 30], for which the “MEC … in the CHO reporter cell in vitro” value in test [2] amounted to 300 nM.

As to `CC1CCN([C@@H](C(=O)Nc2cc(C[C@@H](C)C(=O)O)ccc2Cl)[C@@H](C)C(F)(F)F)CC1` [Example 31], the “MEC … in the CHO reporter cell in vitro” value in test [2] came to 100 nM.

With `CC1CCN([C@@H](C(=O)Nc2cc(C[C@H](C)C(=O)O)ccc2F)[C@@H](C)C(F)(F)F)CC1` [Example 32], the “MEC … in the CHO reporter cell in vitro” value in test [2] was 30 nM.

For the compound `C[C@H](Cc1ccc(F)c(NC(=O)[C@@H]([C@@H](C)C(F)(F)F)N2CCC3(CC2)CC3)c1)C(=O)O` [Example 33], the “MEC … in the CHO reporter cell in vitro” value in test [2] came to 300 nM.

The values are drawn from patent publication US9309198B2, “N-[3-(2-carboxyethyl)phenyl]piperidin-1-ylacetamide derivatives and use thereof as activators of soluble guanylate cyclase” (Bayer Pharma Aktiengesellschaft, priority 2012, dated 2016).
